# Columns and labels:
# P-gp = system: P-gp; parameters: method as in PMID 26153498; settings: calcein-AM efflux assay; cited from earlier work
# BCRP = target: T1, BCRP (Mus musculus, UniProt Q7TMS5); test: Brain penetration in Abcg2-/- mice; type: in vivo; settings: 1 h after 5 mg/kg i.v.
# T1 construct: from tissue; host or cells: blood-brain barrier / brain of FVB mice (WT versus Abcg2-/-)
# T1 sequence (Q7TMS5 1-657): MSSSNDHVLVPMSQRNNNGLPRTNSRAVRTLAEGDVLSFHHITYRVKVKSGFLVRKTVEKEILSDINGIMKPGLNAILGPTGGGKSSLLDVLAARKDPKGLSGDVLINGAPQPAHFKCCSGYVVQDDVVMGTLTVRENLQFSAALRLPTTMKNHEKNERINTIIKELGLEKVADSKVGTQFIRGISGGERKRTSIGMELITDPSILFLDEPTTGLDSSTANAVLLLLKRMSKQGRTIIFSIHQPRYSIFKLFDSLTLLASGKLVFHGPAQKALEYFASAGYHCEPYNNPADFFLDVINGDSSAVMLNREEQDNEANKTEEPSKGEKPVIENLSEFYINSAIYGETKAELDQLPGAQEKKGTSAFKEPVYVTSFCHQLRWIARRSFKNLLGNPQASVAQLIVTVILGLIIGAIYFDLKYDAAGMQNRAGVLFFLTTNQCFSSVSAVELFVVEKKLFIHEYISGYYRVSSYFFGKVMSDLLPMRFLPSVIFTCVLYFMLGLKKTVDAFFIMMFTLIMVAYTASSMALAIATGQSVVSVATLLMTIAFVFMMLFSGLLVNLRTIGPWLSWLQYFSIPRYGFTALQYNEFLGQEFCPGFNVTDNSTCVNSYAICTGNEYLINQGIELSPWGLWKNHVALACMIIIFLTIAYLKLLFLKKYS
# Experimental: The pharmacokinetics of NTRC 0066-0 were analyzed in wild-type (WT), Abcb1a/b^−/−, Abcg2^−/−, Abcb1a/b^−/−;Abcg2^−/− and Abcb1a/b^−/−;Abcg2^−/−;Abcc4^−/− FVB mice. All knockout mice strains have been developed at the Netherlands Cancer Institute. For i.v. administration, NTRC0066-0 was formulated in DMSO: Cremophor EL: saline (1:1:8 v/v) and injected at a dose of 5 mg/kg. For i.p and oral administration, NTRC0066-0 was administered at 5, 10 or 20 mg/kg as indicated. Serial blood sampling was done by tail vein bleeding at specific time points. At terminal time points, blood was drawn by cardiac puncture followed by tissue collection. Plasma was obtained from whole blood by centrifugation (5 min, 5,000 rpm, 4 °C) and tissues were weighed and homogenized using a FastPrep®-24 (MP-Biomedicals, NY) in 1% (w/v) bovine serum albumin (Sigma-Aldrich) in water.
# NTRC 0066-0 was extracted from in vitro and in vivo samples using liquid–liquid extraction with diethyl ether. Another MPS-1 inhibitor, Compound 5 (Cpd-5), was added to the samples as an internal standard. The dried organic phase was reconstituted in 30% methanol in water (v/v). Samples were measured using an LC-MS/MS system comprising an UltiMate 3000 LC Systems (Dionex, Sunnyvale, CA) and an API 4000 mass spectrometer (Sciex, Framingham, MA). […]
# GSC578 = test: Cell survival assay, glioma stem cell line; type: cell-based, murine; settings: GSC578 (EgfrvIII;p15Ink4b/p16Ink4a-/-;Pten-/-), Fig. 1C
# Excerpt: (§1) All cell lines were authenticated using STR profiling. The serum-cultured GBM cell lines U87 (RRID: CVCL_0022) and HS683 (RRID: CVCL_0844) were purchased from the ATCC (Manassas, VA), T98G (RRID: CVCL_0556) and LN-428 (RRID: CVCL_3959) cells were kindly provided by Dr. Conchita Vens (Netherlands Cancer Institute, Amsterdam, The Netherlands), E98 cells were obtained from Prof. Dr. William Leenders (Radboud University Medical Center, Nijmegen, The Netherlands), and LN-751 (RRID: CVCL_3964) were generously made available by Prof. Dr. Monika Hegi (Centre Hospitalier Universitaire Vaudois, Lausanne, Switzerland). GSC lines were isolated from murine tumors that were generated by stereotactic injection of Lenti–Cre vector in the striatum of Egfr^vIII;p15^Ink4b/p16^Ink4aF/F (GSC750), Egfr^vIII;p15^Ink4b/p16^Ink4aF/F;Pten^F/F (GSC578) or Egfr^vIII;p15^Ink4b/p16^Ink4aF/F;Pten^F/F;Tp53^F/F (GSC556) mice, as previously described.
# (§2) Wells were pre-coated with poly-ornithine (15 µg/ml for 3 h at room temperature) and subsequently with laminin (7.5 µg/ml for 1 h at 37 °C) prior to seeding GSCs to make them adherent without inducing differentiation. […] Cells were plated in 24-wells plates at low cell densities (2,000–10,000 cells/well) and exposed to different concentrations of NTRC0066-0 24 h later. NTRC0066-0 was dissolved in DMSO (Sigma-Aldrich) for in vitro experiments and final DMSO concentrations never exceeded 0.1%. When untreated wells were confluent (approximately 6–10 days after seeding, dependent on the cell line), cells were fixed and stained using a solution containing 0.5% crystal violet (w/v; Sigma-Aldrich) and 6% glutaraldehyde (v/v; Honeywell, Morris Plains, NJ). Plates were imaged using a Chemi-Doc XRS+ (Bio-rad, Hercules, CA) and analyzed using the Colony Area plugin of ImageJ [24]. IC50 curves were fitted and plotted using the ‘log(inhibitor) vs. normalized response – Variable slope’ fitting procedure of GraphPad Prism v10.3 (GraphPad Software, La Jolla, CA). Monotherapy curves were corrected for untreated controls.
# GSC556 = test: Cell survival assay, glioma stem cell line; type: cell-based, murine; settings: GSC556 (EgfrvIII;p15Ink4b/p16Ink4a-/-;Pten-/-;Tp53-/-), Fig. 1C
# Excerpt: as §1, §2
# GSC750 = test: Cell survival assay, glioma stem cell line; type: cell-based, murine; settings: GSC750 (EgfrvIII;p15Ink4b/p16Ink4a-/-), Fig. 1C
# Excerpt: as §1, §2
smiles,measurement,setting,value
CCc1cccc(CC)c1NC(=O)c1ccn2c1CCc1cnc(Nc3ccc(N4CCN(C)CC4)cc3OC)nc1-2 [NTRC 0066-0],Inhibition of P-gp activity,P-gp,does not inhibit the activity of P-gp
same,Plasma and brain concentrations compared to WT mice,BCRP,no differences
same,IC50,GSC578,46 nM
same,IC50,GSC556,20 nM
same,IC50,GSC750,25 nM

# From publication PMC12909347, “Disconnect between in vitro and in vivo efficacy of the MPS1 inhibitor NTRC 0066-0 against glioblastoma” (Cellular Oncology, 2026)
